Assay results: patent publication US9963445B2, “Chemical compounds” (SYNGENTA PARTICIPATIONS AG, priority 2013, dated 2018)

Columns and labels:
Type in all cases: in vivo
Abutilon theophrasti [1] = experiment: Pre-emergence herbicidal activity, glasshouse pot test; details: pre-emergence spray, rate 1000 g/ha, evaluated after 13 days, scale 0-5
Method: (§1) Seeds of a variety of test species were sown in standard soil in pots. After cultivation for one day (pre-emergence) under controlled conditions in a glasshouse (at 24/16° C., day/night; 14 hours light; 65% humidity), the plants were sprayed with an aqueous spray solution derived from the formulation of the technical active ingredient in acetone/water (50:50) solution containing 0.5% Tween 20 (polyoxyethelyene sorbitan monolaurate, CAS RN 9005-64-5). The test plants were then grown in a glasshouse under controlled conditions (at 24/16° C., day/night; 14 hours light; 65% humidity) and watered twice daily. After 13 days, the test was evaluated (5=total damage to plant; 0=no damage to plant).
(§2) ABUTH=Abutilon theophrasti; SOLNI=Solanum nigrum; AMARE=Amaranthus retroflexus; SETFA=Setaria faberi; ALOMY=Alopecurus myosuroides; ECHCG=Echinochloa crus-galli, ZEAMX=zea mays.

Alopecurus myosuroides [2] = experiment: as above; details: pre-emergence spray, rate 1000 g/ha, evaluated after 13 days, scale 0-5
Method: as §1, §2

Amaranthus retroflexus [3] = experiment: as above; details: pre-emergence spray, rate 1000 g/ha, evaluated after 13 days, scale 0-5
Method: as §1, §2

Echinochloa crus-galli [4] = experiment: as above; details: pre-emergence spray, rate 1000 g/ha, evaluated after 13 days, scale 0-5
Method: as §1, §2

Setaria faberi [5] = experiment: as above; details: pre-emergence spray, rate 1000 g/ha, evaluated after 13 days, scale 0-5
Method: as §1, §2

zea mays [6] = experiment: as above; details: pre-emergence spray, rate 1000 g/ha, evaluated after 13 days, scale 0-5
Method: as §1, §2

Abutilon theophrasti [7] = experiment: Post-emergence herbicidal activity, glasshouse pot test; parameters: key: 0 = no damage to plant, 5 = total damage to plant; details: Application post-emergence, rate 1000 g/ha, evaluated after 13 days
Method: (§3) Seeds of a variety of test species were sown in standard soil in pots. After 8 days cultivation (post-emergence) under controlled conditions in a glasshouse (at 24/16° C., day/night; 14 hours light; 65% humidity), the plants were sprayed with an aqueous spray solution derived from the formulation of the technical active ingredient in acetone/water (50:50) solution containing 0.5% Tween 20 (polyoxyethelyene sorbitan monolaurate, CAS RN 9005-64-5). The test plants were then grown in a glasshouse under controlled conditions (at 24/16° C., day/night; 14 hours light; 65% humidity) and watered twice daily. After 13 days, the test was evaluated (5=total damage to plant; 0=no damage to plant).
as §2

Alopecurus myosuroides [8] = experiment: as above; parameters: key: 0 = no damage to plant, 5 = total damage to plant; details: Application post-emergence, rate 1000 g/ha, evaluated after 13 days
Method: as §3, §2

Amaranthus retroflexus [9] = experiment: as above; parameters: key: 0 = no damage to plant, 5 = total damage to plant; details: Application post-emergence, rate 1000 g/ha, evaluated after 13 days
Method: as §3, §2

Echinochloa crus-galli [10] = experiment: as above; parameters: key: 0 = no damage to plant, 5 = total damage to plant; details: Application post-emergence, rate 1000 g/ha, evaluated after 13 days
Method: as §3, §2

Setaria faberi [11] = experiment: as above; parameters: key: 0 = no damage to plant, 5 = total damage to plant; details: Application post-emergence, rate 1000 g/ha, evaluated after 13 days
Method: as §3, §2

zea mays [12] = experiment: as above; parameters: key: 0 = no damage to plant, 5 = total damage to plant; details: Application post-emergence, rate 1000 g/ha, evaluated after 13 days
Method: as §3, §2

## CC1=C(Cl)C(=O)N(c2cc(/C=C/C(C)(C)C)ccn2)C1O (stereo not drawn) [AF26]
Abutilon theophrasti [1]
  ABUTH damage score, application pre-emergence: 0
Alopecurus myosuroides [2]
  ALOMY damage score, application pre-emergence: 0
Amaranthus retroflexus [3]
  AMARE damage score, application pre-emergence: 0
Echinochloa crus-galli [4]
  ECHCG damage score, application pre-emergence: 0
Setaria faberi [5]
  SETFA damage score, application pre-emergence: 0
Zea mays [6]
  ZEAMX damage score, application pre-emergence: 0
Abutilon theophrasti [7]
  ABUTH herbicidal damage score: 1
Alopecurus myosuroides [8]
  ALOMY herbicidal damage score: 0
Amaranthus retroflexus [9]
  AMARE herbicidal damage score: 1
Echinochloa crus-galli [10]
  ECHCG herbicidal damage score: 2
Setaria faberi [11]
  SETFA herbicidal damage score: 0
Zea mays [12]
  ZEAMX herbicidal damage score: 2

## CC1=C(Cl)C(=O)N(c2cc(C(F)(F)F)cc[n+]2[O-])C1O (stereo not drawn) [AF28]
Abutilon theophrasti [1]
  ABUTH damage score, application pre-emergence: 0
Alopecurus myosuroides [2]
  ALOMY damage score, application pre-emergence: 0
Amaranthus retroflexus [3]
  AMARE damage score, application pre-emergence: 0
Echinochloa crus-galli [4]
  ECHCG damage score, application pre-emergence: 0
Setaria faberi [5]
  SETFA damage score, application pre-emergence: 0
Zea mays [6]
  ZEAMX damage score, application pre-emergence: 0
Abutilon theophrasti [7]
  ABUTH herbicidal damage score: 3
Alopecurus myosuroides [8]
  ALOMY herbicidal damage score: 1
Amaranthus retroflexus [9]
  AMARE herbicidal damage score: 0
Echinochloa crus-galli [10]
  ECHCG herbicidal damage score: 1
Setaria faberi [11]
  SETFA herbicidal damage score: 3
Zea mays [12]
  ZEAMX herbicidal damage score: 1

## CC(=O)c1ccnc(N2C(=O)C(Cl)=C(C)C2O)c1 (stereo not drawn) [AF30]
Abutilon theophrasti [1]
  ABUTH damage score, application pre-emergence: 3
Alopecurus myosuroides [2]
  ALOMY damage score, application pre-emergence: 1
Amaranthus retroflexus [3]
  AMARE damage score, application pre-emergence: 3
Echinochloa crus-galli [4]
  ECHCG damage score, application pre-emergence: 2
Setaria faberi [5]
  SETFA damage score, application pre-emergence: 1
Zea mays [6]
  ZEAMX damage score, application pre-emergence: 1
Abutilon theophrasti [7]
  ABUTH herbicidal damage score: 1
Alopecurus myosuroides [8]
  ALOMY herbicidal damage score: 2
Amaranthus retroflexus [9]
  AMARE herbicidal damage score: 1
Echinochloa crus-galli [10]
  ECHCG herbicidal damage score: 2
Setaria faberi [11]
  SETFA herbicidal damage score: 3
Zea mays [12]
  ZEAMX herbicidal damage score: 1

## CC1=C(Cl)C(=O)N(c2cc(C(C)(C)F)ccn2)C1O (stereo not drawn) [AF31]
Abutilon theophrasti [1]
  ABUTH damage score, application pre-emergence: 5
Alopecurus myosuroides [2]
  ALOMY damage score, application pre-emergence: 3
Amaranthus retroflexus [3]
  AMARE damage score, application pre-emergence: 5
Echinochloa crus-galli [4]
  ECHCG damage score, application pre-emergence: 4
Setaria faberi [5]
  SETFA damage score, application pre-emergence: 5
Zea mays [6]
  ZEAMX damage score, application pre-emergence: 2
Abutilon theophrasti [7]
  ABUTH herbicidal damage score: 5
Alopecurus myosuroides [8]
  ALOMY herbicidal damage score: 5
Amaranthus retroflexus [9]
  AMARE herbicidal damage score: 5
Echinochloa crus-galli [10]
  ECHCG herbicidal damage score: 5
Setaria faberi [11]
  SETFA herbicidal damage score: 5
Zea mays [12]
  ZEAMX herbicidal damage score: 5

## CC1=C(Cl)C(=O)N(c2cc(C(C)(F)F)ccn2)C1O (stereo not drawn) [AF32]
Abutilon theophrasti [1]
  ABUTH damage score, application pre-emergence: 5
Alopecurus myosuroides [2]
  ALOMY damage score, application pre-emergence: 3
Amaranthus retroflexus [3]
  AMARE damage score, application pre-emergence: 5
Echinochloa crus-galli [4]
  ECHCG damage score, application pre-emergence: 4
Setaria faberi [5]
  SETFA damage score, application pre-emergence: 5
Zea mays [6]
  ZEAMX damage score, application pre-emergence: 2
Abutilon theophrasti [7]
  ABUTH herbicidal damage score: 5
Alopecurus myosuroides [8]
  ALOMY herbicidal damage score: 4
Amaranthus retroflexus [9]
  AMARE herbicidal damage score: 5
Echinochloa crus-galli [10]
  ECHCG herbicidal damage score: 5
Setaria faberi [11]
  SETFA herbicidal damage score: 5
Zea mays [12]
  ZEAMX herbicidal damage score: 4

## CC1=C(Cl)C(=O)N(c2cc(C(F)F)ccn2)C1O (stereo not drawn) [AF34]
Abutilon theophrasti [1]
  ABUTH damage score, application pre-emergence: 5
Alopecurus myosuroides [2]
  ALOMY damage score, application pre-emergence: 3
Amaranthus retroflexus [3]
  AMARE damage score, application pre-emergence: 3
Echinochloa crus-galli [4]
  ECHCG damage score, application pre-emergence: 5
Setaria faberi [5]
  SETFA damage score, application pre-emergence: 5
Zea mays [6]
  ZEAMX damage score, application pre-emergence: 2
Abutilon theophrasti [7]
  ABUTH herbicidal damage score: 5
Alopecurus myosuroides [8]
  ALOMY herbicidal damage score: 5
Amaranthus retroflexus [9]
  AMARE herbicidal damage score: 4
Echinochloa crus-galli [10]
  ECHCG herbicidal damage score: 5
Setaria faberi [11]
  SETFA herbicidal damage score: 5
Zea mays [12]
  ZEAMX herbicidal damage score: 3

## CC1=C(Cl)C(=O)N(c2cc(C(C)(C)C)ccn2)C1O (stereo not drawn) [AF36]
Abutilon theophrasti [1]
  ABUTH damage score, application pre-emergence: 5
Alopecurus myosuroides [2]
  ALOMY damage score, application pre-emergence: 4
Amaranthus retroflexus [3]
  AMARE damage score, application pre-emergence: 5
Echinochloa crus-galli [4]
  ECHCG damage score, application pre-emergence: 5
Setaria faberi [5]
  SETFA damage score, application pre-emergence: 5
Zea mays [6]
  ZEAMX damage score, application pre-emergence: 2
Abutilon theophrasti [7]
  ABUTH herbicidal damage score: 5
Alopecurus myosuroides [8]
  ALOMY herbicidal damage score: 4
Amaranthus retroflexus [9]
  AMARE herbicidal damage score: 3
Echinochloa crus-galli [10]
  ECHCG herbicidal damage score: 5
Setaria faberi [11]
  SETFA herbicidal damage score: 5
Zea mays [12]
  ZEAMX herbicidal damage score: 4

## CC1=C(Cl)C(=O)N(c2cc(C(F)(F)F)cc(Cl)n2)C1O (stereo not drawn) [AF37]
Abutilon theophrasti [1]
  ABUTH damage score, application pre-emergence: 0
Alopecurus myosuroides [2]
  ALOMY damage score, application pre-emergence: 3
Amaranthus retroflexus [3]
  AMARE damage score, application pre-emergence: 0
Echinochloa crus-galli [4]
  ECHCG damage score, application pre-emergence: 0
Setaria faberi [5]
  SETFA damage score, application pre-emergence: 1
Zea mays [6]
  ZEAMX damage score, application pre-emergence: 0
Abutilon theophrasti [7]
  ABUTH herbicidal damage score: 2
Alopecurus myosuroides [8]
  ALOMY herbicidal damage score: 4
Amaranthus retroflexus [9]
  AMARE herbicidal damage score: 0
Echinochloa crus-galli [10]
  ECHCG herbicidal damage score: 4
Setaria faberi [11]
  SETFA herbicidal damage score: 4
Zea mays [12]
  ZEAMX herbicidal damage score: 1

## CC1=C(Cl)C(=O)N(c2cc(F)ccn2)C1O (stereo not drawn) [AF39]
Abutilon theophrasti [1]
  ABUTH damage score, application pre-emergence: 4
Alopecurus myosuroides [2]
  ALOMY damage score, application pre-emergence: 3
Amaranthus retroflexus [3]
  AMARE damage score, application pre-emergence: 4
Echinochloa crus-galli [4]
  ECHCG damage score, application pre-emergence: 4
Setaria faberi [5]
  SETFA damage score, application pre-emergence: 3
Zea mays [6]
  ZEAMX damage score, application pre-emergence: 1
Abutilon theophrasti [7]
  ABUTH herbicidal damage score: 5
Alopecurus myosuroides [8]
  ALOMY herbicidal damage score: 4
Amaranthus retroflexus [9]
  AMARE herbicidal damage score: 5
Echinochloa crus-galli [10]
  ECHCG herbicidal damage score: 5
Setaria faberi [11]
  SETFA herbicidal damage score: 4
Zea mays [12]
  ZEAMX herbicidal damage score: 2

## CC1=C(Cl)C(=O)N(c2cc(C(C)F)ccn2)C1O (stereo not drawn) [AF40]
Abutilon theophrasti [1]
  ABUTH damage score, application pre-emergence: 5
Alopecurus myosuroides [2]
  ALOMY damage score, application pre-emergence: 2
Amaranthus retroflexus [3]
  AMARE damage score, application pre-emergence: 5
Echinochloa crus-galli [4]
  ECHCG damage score, application pre-emergence: 4
Setaria faberi [5]
  SETFA damage score, application pre-emergence: 5
Zea mays [6]
  ZEAMX damage score, application pre-emergence: 2
Abutilon theophrasti [7]
  ABUTH herbicidal damage score: 5
Alopecurus myosuroides [8]
  ALOMY herbicidal damage score: 3
Amaranthus retroflexus [9]
  AMARE herbicidal damage score: 5
Echinochloa crus-galli [10]
  ECHCG herbicidal damage score: 5
Setaria faberi [11]
  SETFA herbicidal damage score: 4
Zea mays [12]
  ZEAMX herbicidal damage score: 5

## CC1=C(Cl)C(=O)N(c2cc(C)ccn2)C1O (stereo not drawn) [AF41]
Abutilon theophrasti [1]
  ABUTH damage score, application pre-emergence: 5
Alopecurus myosuroides [2]
  ALOMY damage score, application pre-emergence: 4
Amaranthus retroflexus [3]
  AMARE damage score, application pre-emergence: 5
Echinochloa crus-galli [4]
  ECHCG damage score, application pre-emergence: 4
Setaria faberi [5]
  SETFA damage score, application pre-emergence: 4
Zea mays [6]
  ZEAMX damage score, application pre-emergence: 3
Abutilon theophrasti [7]
  ABUTH herbicidal damage score: 5
Alopecurus myosuroides [8]
  ALOMY herbicidal damage score: 5
Amaranthus retroflexus [9]
  AMARE herbicidal damage score: 5
Echinochloa crus-galli [10]
  ECHCG herbicidal damage score: 5
Setaria faberi [11]
  SETFA herbicidal damage score: 5
Zea mays [12]
  ZEAMX herbicidal damage score: 4
